Results reported in patent publication US20230080054A1 (ILDONG PHARMACEUTICAL CO., LTD., priority 2021, published 2023).

Tested on: platelet-rich plasma (PRP)
Test: Recalcification time of rat platelet-rich plasma
Conditions: 30 μM, vs 2% DMSO control

| SMILES | Inhibition Level (retardation time, recalcification time) |
| --- | --- |
| O=C(N[C@@H]1C[C@H]1c1ccccc1)c1cccc(Nc2ccc(-c3cccc(F)c3)cn2)c1 [Compound 123, 3-{[5-(3-fluorophenyl)pyridin-2-yl]amino}-N-[(1R,2S)-2-phenylcyclopropyl]benzamide] | B (the compounds (30 μM) having retardation time of 20 seconds or more to less than 50 seconds) |
| O=C(NCCC1CCCCC1)c1cccc(Nc2ncc(-c3cccc(F)c3)cn2)c1 [Compound 80, N-(2-cyclohexylethyl)-3-{[5-(3-fluorophenyl)pyrimidin-2-yl]amino}benzamide] | C (compounds (30 μM) having less than 20 seconds of retardation time) |
| O=C(N[C@@H]1C[C@H]1c1ccccc1)c1cccc(Nc2ncc(-c3cccc(F)c3)cn2)c1 [Compound 119, 3-{[5-(3-fluorophenyl)pyrimidin-2-yl]amino}-N-[(1R,2S)-2-phenylcyclopropyl]benzamide] | C (compounds (30 μM) having less than 20 seconds of retardation time) |
| O=C(Nc1ccc(Cl)c(Cl)c1)c1cccc(Nc2ncc(-c3cccc(F)c3)cn2)c1 [Compound 118, N-(3,4-dichlorophenyl)-3-{[5-(3-fluorophenyl)pyrimidin-2-yl]amino}benzamide] | C (compounds (30 μM) having less than 20 seconds of retardation time) |
| O=C(Nc1cccc(F)c1)c1cccc(Nc2ccc(-c3cccc(F)c3)cn2)c1 [Compound 122, N-(3-fluorophenyl)-3-{[5-(3-fluorophenyl)pyridin-2-yl]amino}benzamide] | B (the compounds (30 μM) having retardation time of 20 seconds or more to less than 50 seconds) |
| O=C(NCCc1cccc(C(F)(F)F)c1)c1cccc(Nc2ncc(-c3cccc(F)c3)cn2)c1 [Compound 79, 3-{[5-(3-fluorophenyl)pyrimidin-2-yl]amino}-N-{2-[3-(trifluoromethyl)phenyl]ethyl}benzamide] | C (compounds (30 μM) having less than 20 seconds of retardation time) |
| O=C(N[C@@H]1C[C@H]1c1ccccc1)c1cccc(Nc2ccc(-c3ccccc3)nn2)c1 [Compound 68, N-[(1R,2S)-2-phenylcyclopropyl]-3-[(6-phenylpyridazin-3-yl)amino]benzamide] | A (the compounds (30 μM) having retardation time of 50 seconds or more) |
